# Assay results: patent US20190125646A1, “ORAL COMPOSITION FOR TOOTH WHITENING PRODUCT, AND KIT COMPRISING SAME” (LG HOUSEHOLD & HEALTH CARE LTD., priority 2013, published 2019)
# Entries after “also recorded” stand apart in the source; their conditions may differ.
# What was measured:
# [1] = Survey evaluation related to irritation (Experimental Example 3); type: in vivo; conditions: subjects' own evaluation after use, score 0-3; FIG. 3
# Description: After using comparative example 2 and examples 1 and 2, each subject was allowed to evaluate the degree of irritation on a 3-point scale according to the following evaluation criteria.
# 2: Certainly sensible irritation.
# 3: Stop using due to irritation
# [2] = Brightness variation (Experimental Example 4); conditions: gel first agent plus hydrogen peroxide 3.0% patch on stained HAP disk, removed after 1 hour; FIG. 4
# Experimental: Comparative examples 3 through 8 and example 5 were each attached to a stained HAP disk and were removed after 1 hour, and variations relative to initial brightness were measured and were indicated as ΔL.
Compound,"degree of irritation (survey, 3-point scale) [1]","whitening effect (variation relative to initial brightness, ΔL) [2]"
NCCS(=O)(=O)O [taurine],significantly reduced,–
iron chloride,more severe,highest tooth whitening effect; also recorded: remarkably superior effect than other metal ions
